Assay results published in patent US8173668B1 (Alcon Research, Ltd., priority 2007, dated 2012).
Like-named read-outs stand apart in the source and are kept apart here.

Columns and labels:
[1] = target: T1, B2-receptors in h-NPE cells (Homo sapiens, UniProt P30411); assay: [Ca2+]i mobilization (FLIPR) in h-NPE cells, agonist mode; assay type: cell-based; conditions: h-NPE cells, mean ± SEM
T1 construct: B2-receptor proteins in h-TM, h-CM and h-NPE cells; endogenous in cells; host or cells: human trabecular meshwork (h-TM), human ciliary muscle (h-CM) and human non-pigmented ciliary epithelial (h-NPE) cells
T1 sequence (P30411 1-391): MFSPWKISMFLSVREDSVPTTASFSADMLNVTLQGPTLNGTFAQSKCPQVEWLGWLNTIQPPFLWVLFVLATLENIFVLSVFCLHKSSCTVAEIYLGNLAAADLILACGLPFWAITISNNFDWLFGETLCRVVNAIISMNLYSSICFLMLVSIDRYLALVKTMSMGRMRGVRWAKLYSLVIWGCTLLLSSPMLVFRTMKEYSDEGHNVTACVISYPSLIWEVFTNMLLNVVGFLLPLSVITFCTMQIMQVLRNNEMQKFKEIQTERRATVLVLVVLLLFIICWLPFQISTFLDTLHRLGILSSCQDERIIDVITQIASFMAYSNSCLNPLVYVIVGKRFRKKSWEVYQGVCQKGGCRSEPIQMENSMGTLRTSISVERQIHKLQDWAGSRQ
Experimental: On the day of the experiment, one vial of FLIPR Calcium Assay Kit dye is re-suspended in 50 mL of a FLIPR buffer consisting of Hank's Balanced Salt Solution (HBSS), 20 mM HEPES, and 2.5 mM probenecid, pH 7.4. Cells are loaded with the calcium-sensitive dye by addition of an equal volume (50 μL) to each well of the 96-well plate and incubated with dye for 1 h at 23° C. After this time, the test compound plate and cell plate are placed in the FLIPR instrument. At the beginning of an experimental run, a signal test is performed to check the basal fluorescence signal from the dye-loaded cells and the uniformity of the signal across the plate. The basal fluorescence is adjusted between 8000-12000 counts by modifying the exposure time, the camera F-stop, or the laser power. Instrument settings for a typical assay are the following: laser power 0.3-0.6 W, camera F-stop F/2, and exposure time 0.4 sec.
Fluorescence data are collected in real-time at 1.0 sec intervals for the first 60 secs and at 6.0 sec intervals for an additional 120 secs. […] The data are then analyzed using an automated, iterative, sigmoidal curve-fitting computer program to obtain the potency and intrinsic activities of the test agents as previously described (Sharif et al. J. Pharmacol. Exp. Ther. 286: 1094-1102, 1998; Sharif et al. Invest. Ophthalmol. Vis. Sci. 39:2562-2571, 1998; Kelly et al. J. Pharmacol. Exp. Ther. 304: 238-245, 2003). The sources of materials and reagents for such assays can be found in the references cited above.

cats = assay: IOP-lowering activity in cats; assay type: in vivo
Source text: Some obvious drawbacks and reasons for the lack of consistent observations noted above are probably related to species differences in the effects of BK on IOP changes and on the fact that BK is a labile peptide that can easily and rapidly be inactivated by kininases and other proteases when it comes into contact with body fluids (Hall, Pharmacol. Ther., 56, 131-190, 1992). Additionally, topical ocular administration of peptides such as BK are confounded by the potential lack of or little bioavailability through the cornea to reach the anterior segment of the eye. […] This is probably related to the attainment of a relevant concentration in the aqueous humor and ciliary body when the compound was administered topical ocularly.

[2] = Ocular pharmacokinetic study in rabbit eyes, single topical ocular dose; assay type: in vivo; conditions: single 300 μg topical ocular dose; for concentration at 0.5 hr: 0.5 hr post-dosing; for concentration at 1 hr: 1.0 hr post-dosing; for concentration at 3 hr: 3 hr post-dosing; for concentration at 6 hr: 6 hr post-dosing
Experimental: In order to better understand the time-course of action of FR-190997, a pharmacokinetic study was performed in rabbit eyes using a single 300 μg topical ocular dose of FR-190997. […] Due to the activation of multiple signaling pathways by BK (see above), and presumably FR-190997, and the convergence and amplification of the down-stream biochemical reactions in the target cells/tissues, it is quite possible that activation of only a few BK receptors by FR-190997 may result in quite profound IOP-lowering.

ocular normotensive mice = assay: Acute IOP response in mouse eyes; assay type: in vivo; conditions: 0.1% topical, IOP at 6 and 24 hours; FIG. 7
Experimental: IOP is determined with an applanation pneumatonometer after light corneal anesthesia with 0.1% proparacaine. After baseline IOP measurements were taken, one eye of each of 8 mice was topically dosed with 0.1% FR-190997 in the formulation described in Example 10 or the vehicle of Example 10. The contralateral eye was dosed with vehicle as a control. Subsequent IOP measurements were taken at 6 and 24 hours.

[3] = aqueous humor, read-out: Aqueous Humor Concentration
[4] = ciliary body, read-out: Ciliary Body Concentration

SMILES: CNC(=O)c1ccc(/C=C/C(=O)NCC(=O)N(C)c2ccc(Cl)c(COc3cccc4c(OCc5ccccn5)cc(C)nc34)c2Cl)cc1 [FR-190997]
- Emax ([1]; read-out: Intrinsic Activity (Emax, % max relative to BK)): 32%
- EC50 ([1]; read-out: Potency (EC50), [Ca2+]i mobilization): 384 ± 39 nM
- ability to lower IOP (cats): unable to lower IOP
- concentration at 0.5 hr [2, 3]: 0.9 ± 0.2 nM
- concentration at 1 hr [2, 3]: 16 ± 4.7 nM
- concentration at 1.5 hr ([2]; aqueous humor, 1.5 hr post-dosing): 3.1 ± 1.1 nM
- concentration at 3 hr [2, 3]: 139 ± 114 nM
- concentration at 6 hr [2, 3]: 16.6 ± 4.6 nM
- concentration at 0.5 hr [2, 4]: 2.75 ± 1.7 nM
- concentration at 1 hr [2, 4]: 5.52 ± 1.68 nM
- concentration at 3 hr [2, 4]: 26.4 ± 7.9 nM
- concentration at 6 hr [2, 4]: 37 ± 10.6 nM
- peak aqueous humor level [2]: 139 nM
- time of peak aqueous humor level post-dosing [2]: 3 h
- effect on IOP in ocular normotensive mice (ocular normotensive mice): lower IOP
